This assay deals with T1, enzyme ACAT-1 (Homo sapiens, UniProt P35610).
T1 construct: endogenous in cells; host or cells: HepG2
T1 sequence (P35610 1-550): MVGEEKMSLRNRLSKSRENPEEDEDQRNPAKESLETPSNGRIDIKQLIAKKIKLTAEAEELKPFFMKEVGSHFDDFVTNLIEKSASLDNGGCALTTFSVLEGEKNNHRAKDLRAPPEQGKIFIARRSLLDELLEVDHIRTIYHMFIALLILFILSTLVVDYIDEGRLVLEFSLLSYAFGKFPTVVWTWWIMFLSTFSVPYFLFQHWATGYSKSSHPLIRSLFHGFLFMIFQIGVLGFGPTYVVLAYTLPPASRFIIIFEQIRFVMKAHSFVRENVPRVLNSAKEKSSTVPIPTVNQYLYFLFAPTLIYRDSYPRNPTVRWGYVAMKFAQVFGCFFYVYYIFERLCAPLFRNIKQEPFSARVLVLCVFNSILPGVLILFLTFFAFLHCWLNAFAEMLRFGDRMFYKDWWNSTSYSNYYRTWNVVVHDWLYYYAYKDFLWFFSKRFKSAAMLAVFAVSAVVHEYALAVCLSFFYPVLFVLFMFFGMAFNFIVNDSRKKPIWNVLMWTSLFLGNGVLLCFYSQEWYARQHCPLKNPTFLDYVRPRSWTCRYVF
The experiment in a line: NBD-cholesterol fluorescence test in HepG2 cells for inhibitory activity towards ACAT-1 (SOAT-1). The class given is cell-based. As to conditions: NBD-cholesterol 1 μg/ml, incubation 6 hrs at 37° C., fluorescence excitation 490 nm, emission 540 nm. Here is the method: The compounds (I) according to the invention, and the pharmaceutically acceptable salts, solvates and/or hydrates thereof, have inhibitory properties towards the enzyme SOAT-1. This inhibitory action on the enzyme SOAT-1 is measured according to a primary enzymatic test HepG2, as described below.
The compounds of formula (I) according to the invention were subjected to a test making it possible to evaluate their inhibitory activity towards the enzyme ACAT-1 inspired by the following publication: “Identification of ACAT1- and ACAT2-specific inhibitors using a novel, cell based fluorescence assay: individual ACAT uniqueness” J. lipid. Res (2004) vol 45, pages 378-386. The principle of this test is based on the use of NBD-cholesterol, an analogue of cholesterol whose fluorescence depends on its environment. When it is in a polar environment, it is weakly fluorescent, whereas in a non-polar environment it is strongly fluorescent. […]
The following method is applied: the HepG2 cells are incubated in the presence of NBD-cholesterol (1 μg/ml) and of the compound of formula (I) to be tested in transparent-bottomed black 96-well plates at a level of 30000 cells per well. […] After addition of 50 μl of lysis buffer (10 mM NaPO4, 1% lgepal), the plates are shaken for 5 mins and read in fluorescence (excitation 490 nm, emission 540 nm) on a FUSION instrument (Perkin Elmer).

Molecules are shown by their SMILES.

A word on the IC50: it is the concentration at which inhibition is half-maximal. High values mean weaker potency, low ones greater potency. In the case of `CC(C)c1cccc(C(C)C)c1NC(=O)NCC1(Nc2ccccc2I)CCCC1` [I.2, 1-(2,6-diisopropylphenyl)-3-[1-(2-iodophenylamino)-cyclopentylmethyl)-urea], the IC50 was determined as 0.0241 µM.
Then `CC(C)c1cccc(C(C)C)c1NC(=O)NCC1(Nc2ccccc2-c2ccccc2)CCCC1` [I.4, 1-[1-(biphenyl-2-ylamino)-cyclopentylmethyl]-3-(2,6-diisopropylphenyl)-urea], with 0.0095 µM.

The values are drawn from patent US8394990B2, “Phenylurea inhibitors of the enzyme SOAT-1 and pharmaceutical/cosmetic compositions comprised thereof” (Galderma Research & Development, priority 2007, dated 2013).
